Experimental data published in patent US20190046490A1, “METHODS OF TREATING LACTOSE INTOLERANCE” (Nogra Pharma Limited, priority 2016, published 2019).
“Also recorded” adds a separate entry of the source.

What was measured:
LCT [1] = assay: LCT mRNA expression and activity in proximal small intestine of mice after oral GED; assay type: in vivo; conditions: weaned C57BL/6 mice, 30 mg/kg daily by gavage for 7 days
Experimental: (§1) Expression of genes of interest was quantified by quantitative PCR (qPCR) of corresponding reverse transcribed mRNA. One μg of total RNA was reverse-transcribed into cDNA using the High Capacity cDNA Archive kit (Applied Biosystems). Amplification was performed using an ABI PRISM 7000 sequence detection system (Applied Biosystem) using Power SYBR® Green PCR master Mix (Applied Biosystem). Primer pairs for each human transcript were chosen with qPrimer depot software (at primerdepot.nci.nih.gov.). Quantification of qPCR signals was performed using ΔCt relative quantification method using GAPDH as a reference gene for human and rat samples and β-Actin for mouse samples. Values were represented in terms of relative quantity of mRNA level variation or fold increase compared to control conditions.
Lactase activity was evaluated by using a glucose oxidase method (Glucose Assay Kit, Sigma). […] For Caco-2 cells, lactase activity was determined directly from the cell monolayer. […] The reaction was stopped with 100 μl of H2SO4 and read by spectrophotometry at 450 nm. When lactase activity was determined from intestinal sample, tissue samples were first dounce-homogenized in 0.9% NaCl on crushed ice. […] For each experiment, the background attributed to the remaining glucose in the samples was measured by incubating cells or cell extracts in lactose-free buffer. […]

LCT mRNA = assay: Quantitative PCR of LCT mRNA expression in Caco-2 cells; assay type: cell-based, human
Experimental: Caco-2 (colonic adenocarcinoma) cells were grown in Dulbecco's Modified Eagle's Medium (DMEM, Invitrogen, Life Technologies, Cergy-Pontoise, France) supplemented with 20% foetal calf serum (FCS, Dutscher, Brumath, France), 1% penicillin-streptomycin (5 ml/l) (Invitrogen, Life technologies) and 1% non-essential amino acids (5 ml/l) (Invitrogen, Life technologies). All cell lines were cultured as confluent monolayers at 37° C. in a controlled, 5% CO2 atmosphere.
For cell stimulations, 1×10^6 cells per well were seeded in 6-well plates. Cells were serum deprived for 16 hours prior to stimulation in order to synchronize the cells. Cells were treated with GED (Nogra Pharma Ltd, Ireland), pioglitazone (1 μM, Sigma-Aldrich) or CLA (various concentrations, Sigma-Aldrich). When necessary, the DMSO vehicle (Sigma-Aldrich) was used as control. After 24 hours of stimulation, cells were washed three times with sterile PBS before RNA extraction. Cell stimulations were performed in 4 replicates for microarray analysis and in 3, 4 or 6 replicates for other stimulations.
Cells were lysed with lysis buffer (RA1, Macherey-Nagel) containing 1% β-mercaptoethanol. Total RNA was extracted with a Nucleospin RNA kit (Macherey-Nagel, Hoerdt, France). After RNAse inactivation, total RNA was cleaned of genomic DNA traces by DNAse treatment and eluted in RNAse-free, DEPC-water. The purity of the RNA was evaluated by UV spectroscopy on a Nanodrop system (Nyxor Biotech, Paris, France) from 220 to 350 nm. Before microarray experiments, RNAs were also profiled on an Agilent 2100 bioanalyzer. One μg of total RNA with a minimum concentration of 50 ng/μl was used in the microarray and qRT-PCR analysis.
as §1

LCT activity = assay: Lactase activity in Caco-2 cells (glucose oxidase method); assay type: cell-based, human; conditions: Caco-2 cells, 30 mM
Experimental: (§2) Lactase activity was evaluated by using a glucose oxidase method (Glucose Assay Kit, Sigma). This lactase assay is based on the measurement of the amount of glucose produced following the action of lactase by incubating samples with a lactose buffer solution (0.056 mol/l lactose in a 0.1 mol/l Na-maleate buffer). For Caco-2 cells, lactase activity was determined directly from the cell monolayer. After extensive washing, the cell monolayer was incubated with lactose buffer for one hour at 37° C. The supernatant was recovered, 50 μl were diluted with 100 μl of glucose oxidase reagent and incubated at 37° C. for 1 hour. The reaction was stopped with 100 μl of H2SO4 and read by spectrophotometry at 450 nm. When lactase activity was determined from intestinal sample, tissue samples were first dounce-homogenized in 0.9% NaCl on crushed ice. These homogenates were then diluted in 0.9% NaCl ( 1/500) and 50 μl of dilution were incubated with lactose buffer and used to determine lactase activity. For each experiment, the background attributed to the remaining glucose in the samples was measured by incubating cells or cell extracts in lactose-free buffer.

[2] = tested on: DR2 response element of the human LCT gene promoter; assay: Luciferase reporter gene assay with LCT promoter DR2 fragment in Caco-2 cells; assay type: cell-based
Experimental: A 321 bp genomic fragment (corresponding to the first 321 bp upstream to the transcription start site of the human lactase gene) was cloned in the pGL4-Luc reporter vector using XhoI and Hind III restriction sites introduced in “Hs-Prom-0.3 Kb sens” and “Hs-Prom-0.3 Kb anti-sens” oligonucleotides respectively. This construct and the empty vector control were transiently transfected in Caco-2 cells using Nucleofector™ Technology. Six hours post-transfection, cells were treated with PPARγ modulator for 12 hours. Luciferase activity was measured using the luciferase assay kit (Promega) in a Wallac Victor2 ™ 1420 multilabel counter (Perkin Elmer).

lactase = assay: Lactase expression and activity in short term cultures of human duodenal biopsies; assay type: cell-based; conditions: exposure for 6 hours
LCT [3] = assay: LCT mRNA and LCT activity in duodenum and jejunum of rats after 5 days oral gavage; assay type: in vivo, Sprague Dawley rats
Experimental: as §1, §2
To determine whether CLA induces LCT expression and activity in vivo, Sprague Dawley rats were fed a control diet and administered either carboxymethyl cellulose (CMC; 0.5%), CLA, or GED for 5 days, after which levels of PPARγ mRNA, LCT mRNA, and LCT activity were measured. CLA was administered at 200 mg/kg/day by oral gavage, and GED was administered at 30 mg/kg/day by oral gavage (FIG. 21A).

[4] = oral gavage 5 days, GED 30 mg/kg/day, CLA 200 mg/kg/day

COC(Cc1ccc(N)cc1)C(=O)O (stereo not shown) [GED, 3-(4′-aminophenyl)2-methoxypropionic acid]
LCT activity in the proximal part of the small intestine (LCT [1]): significantly increased | LCT expression in the proximal part of the small intestine (LCT [1]): significantly increased | LCT mRNA gene expression relative to unstimulated cells, dose-response (LCT mRNA; 0.1 mM, 1 mM, and 30 mM): increased | LCT mRNA expression relative to control (qPCR) (LCT mRNA; 30 mM, 24 hours, normalized to GAPDH): Significant increases; also recorded: induction | LCT activity relative to control cells (LCT activity): significant increase; also recorded: significantly upregulated | luciferase activity compared to untreated cells ([2]; Caco-2 cells transfected with pGL4Luc Prom LCT construct): significantly increased | luciferase activity ([2]; Caco-2 cells with luciferase construct lacking the DR2 sequence (pGL4Luc)): No significant change | lactase expression (lactase): significant increase | lactase activity (lactase; data not shown): significant increase | LCT activity in jejunal tissue compared to CMC control (LCT [3]; 30 mg/kg/day oral gavage 5 days): significant increase | LCT activity in duodenal tissue compared to CMC control (LCT [3]; [4]): significant increase | LCT mRNA expression in duodenal tissue relative to CMC control (LCT [3]; [4]): significant increase | LCT mRNA expression in jejunal tissue relative to CMC control (LCT [3]; [4]): significant increase
